From patent US12582638B2, “Pharmaceutical composition for treating cancer, containing mTOR-signaling inhibitor as active ingredient” (KOREA ADVANCED INSTITUTE OF SCIENCE AND TECHNOLOGY, priority 2020, dated 2026) come the findings set out here.

SMILES strings stand for the structures.

In experiment [1] the test system is p-S6K, p-S6, LC3. Kind of experiment: Cell signaling assay, western blot, SNU2. Type of experiment: cell-based, human. The following applies: 0, 5, and 10 μM, FIG. 7g. How it is done:
Cells treated with various concentration (0, 5, and 10 μM) of lomitapide were lysed with RIPA buffer containing a protease-inhibitor cocktail. The whole-cell lysate was incubated on ice for 30 minutes. After centrifugation at 4° C. and 13,300×g for 15 minutes, the supernatant was collected. For use as controls, cells were treated with 1 μM of torin, known as an mTOR inhibitor.
For western blot analysis, the supernatant was loaded onto 10% SDS-PAGE gel. The separated proteins were blotted onto a PVDF membrane. Then, the blots were incubated with antibodies at 4° C. for 12 hours as follows (Table 3).
(§1) Then, the blots were washed with TBST (a mixture of tris-buffered saline (TBS) and Tween 20), incubated with horseradish peroxidase-conjugated secondary antibody (Cell signaling) at 37° C. for 1 hour, and washed, followed by detecting enhanced chemiluminescence (ECL; Amersham).
Background: A western blot detects proteins with antibodies after separation by electrophoresis.

Experiment [2] concerns p-S6K, p-S6, LC3. The experiment is described as follows: Cell signaling assay, western blot, HT29. Type of experiment: cell-based, human. The following applies: 0, 5, and 10 μM, FIG. 7b. How it is done:
Cells treated with various concentrations (0, 5, and 10 μM) of lomitapide were lysed with RIPA buffer containing a protease-inhibitor cocktail. The whole-cell lysate was incubated on ice for 30 minutes. After centrifugation at 4° C. and 13,300×g for 15 minutes, the supernatant was collected. For use as controls, HCT116, SW480, HT29, MDA-MB-231, and MDA-MB-468 cells were treated with 1 μM of torin, known as an mTOR inhibitor.
For western blot analysis, the supernatant was loaded onto 10% SDS-PAGE gel. The separated proteins were blotted onto a PVDF membrane. Then, the blots were incubated with antibodies at 4° C. for 12 hours as follows (Table 2).
as §1

Another experiment has as its system COV434. The experiment is described as follows: Cell viability, CellTiterGlo, 72 hours. Type of experiment: cell-based. As to conditions: COV434 cells, Ovary. How it is done: In addition to the colorectal cells, 120 cancer cell lines treated with various concentrations of lomitapide were assayed for viability.
To analyze cell viability, the cells were incubated with lomitapide at 37° C. for 72 hours in a 5% or 10% CO2 atmosphere and then equilibrated at room temperature for 1 hour, followed by addition of CellTiterGlo reagent (Promega). One hour later, luminescence was measured to calculate cell viability (%). The 120 cell lines were purchased from ATCC (American Type Culture Collection, Virginia, USA).
On the technique in general: Cellular ATP, detected with luciferase, serves as a proxy for viable cell number.

The test system of the next experiment is p-AMPK, LC3, p-ULK1. The experiment is described as follows: Autophagy assay, western blot, HCT116. Type of experiment: cell-based, human. The following applies: 0, 5, and 10 μM, FIG. 8. Here is the method:
HCT116 cells treated with various concentration (0, 5, and 10 μM) of lomitapide were analyzed for change in cell autophagy-related cell signaling pathway by western blotting. To this end, the supernatant obtained in Example 3 was loaded onto 10% SDS-PAGE gel. The proteins thus separated were blotted onto a PVDF membrane. Then, the blots were incubated with anti-p-AMPK, anti-LC3, anti-p-ULK1 antibodies (Cell Signaling Technology, Massachusetts, USA) at 4° C. for 12 hours. Afterward, the blots were washed with TBST (a mixture of tris-buffered saline (TBS) and Tween 20), incubated with horseradish peroxidase-conjugated secondary antibody (Cell signaling) at 37° C. for 1 hour, and washed, followed by detecting enhanced chemiluminescence (ECL; Amersham).

The next experiment has as its system B16F10 melanoma. The experiment is described as follows: Mouse homograft tumor model, B16F10 melanoma. Type of experiment: in vivo. As to conditions: B16F10 in C57B6/N mice. How it is done: For mouse homograft tumor model, experiments were conducted using female C57B6/N mice (wild-type, 6 weeks old) with MC38 colorectal cancer and B16F10 melanoma cell lines. MC38 colorectal cancer and B16F10 melanoma cell lines were each subcutaneously injected at a dose of 2×10^5 cells. Lomitapide used in the two models was formulated with 45% saline, 40% PEG300, 5% Tween-80, and 10% DMSO.
For B16F10 skin melanoma, from 10 days after the tumor injection, lomitapide was intraperitoneally injected at a dose of 40 mg/kg three times at days 3, 5, and 7, and anti-PD-1 mAb (clone RMP1-14, BioXCell, West Lebanon, NH, USA) or rat IgG2a iso-type control (clone 2A3, BioXCell, BE0089) was administered at a dose of 20 mg/kg at days 1, 3, 5, and 7. The mice were euthanized immediately when signs of pain were observed, the body weight was reduced by 20% compared to the normal weight, or the tumor volume exceeded 1,000 mm^3 (FIGS. 19a and 19b).

For orientation: IC50 means the point on the concentration scale where inhibition reaches its midpoint. A lower IC50 goes with greater potency. `O=C(NC1CCN(CCCCC2(C(=O)NCC(F)(F)F)c3ccccc3-c3ccccc32)CC1)c1ccccc1-c1ccc(C(F)(F)F)cc1` [lomitapide, N-(2,2,2-trifluoroethyl)-9-[4-[4-[[[4′-(trifluoromethyl)[1,1′-biphenyl]2-yl]carbonyl]amino]-1-piperidinyl]butyl]-9H-fluoren-9-carboxamide]: the “conversion from LC3I into LC3II” value is “increased induction of conversion from LC3I into LC3II” with p-S6K, p-S6, LC3 [1]; “increased induction of conversion from LC3I into LC3II” with p-S6K, p-S6, LC3 [2]; “significantly increased induction of conversion from LC3I into LC3II” with p-AMPK, LC3, p-ULK1. For the same molecule, the “phosphorylation levels of target proteins (p-S6K, p-S6)” value with p-S6K, p-S6, LC3 [1] (dose-dependent) is recorded as “remarkably decreased phosphorylation levels”. In addition, the “phosphorylation levels of target proteins (p-S6K and p-S6)” value with p-S6K, p-S6, LC3 [2] is listed as “remarkably decreased phosphorylation levels”. This molecule displayed a half-inhibitory concentration (IC50) in the experiment with COV434 of 3.1 µM. The “phosphorylation level of AMPK” value with p-AMPK, LC3, p-ULK1 (dose-dependent) is reported as “remarkably increased”. Also, in the experiment on B16F10 melanoma (lomitapide 40 mg/kg i.p., anti-PD-1 mAb 20 mg/kg), the “tumor growth compared to the groups treated with the anti-PD-1 mAb” value was “greatly suppressed and reduced”. The “tumor growth compared to the control” value in the experiment on B16F10 melanoma (lomitapide 40 mg/kg intraperitoneally three times) was “significantly suppressed and reduced tumor growth”.
